In ChEMBL document CHEMBL3045698, “Structure and synthesis of a potent glutamate receptor antagonist in wasp venom” (Proc Natl Acad Sci U S A, 1988):
Activity calls are given as the source filed them. The calls are words filed in the database; no cut-off is given here.

What was measured:
Schistocerca gregaria [1] = assay: Inhibition of quisqualate-sensitive glutamate receptor in Schistocerca gregaria (desert locust) muscle assessed as reduction in neurally-evoked teitch contraction of locust metathoracic retractor unguis muscle at 0.1 Hz to 0.6 Hz stimulation frequency at 25 uM
Schistocerca gregaria [2] = assay: Inhibition of quisqualate-sensitive glutamate receptor in Schistocerca gregaria (desert locust) muscle assessed as reduction in glutamate-evoked teitch contraction of locust metathoracic retractor unguis muscle at 0.1 Hz to 0.6 Hz stimulation frequency at 10 uM

Row | Structure (SMILES) | inhibition (Schistocerca gregaria [1]) | inhibition (Schistocerca gregaria [2])
1 | CCCC(=O)N[C@@H](Cc1ccc(O)cc1)C(=O)NCCCNCCCCNCCCN | Active | 
2 | CCCC(=O)N[C@@H](Cc1ccc(O)cc1)C(=O)NCCCNCCCNCCCCN | Active | 
3 | CCCC(=O)N[C@@H](Cc1ccc(O)cc1)C(=O)NCCCCNCCCNCCCN | Active | > 90%
